Structures are written as SMILES.

One assay concerns the target T1, HSE DNA-binding activity (Homo sapiens, UniProt Q00613).
T1 construct: functionally linked to an hsp70b promoter and therefore controlled by endogenous HSF1; endogenous in cells; host or cells: HeLa cells / HeLa-derived cell line Z74
T1 sequence (Q00613 1-529): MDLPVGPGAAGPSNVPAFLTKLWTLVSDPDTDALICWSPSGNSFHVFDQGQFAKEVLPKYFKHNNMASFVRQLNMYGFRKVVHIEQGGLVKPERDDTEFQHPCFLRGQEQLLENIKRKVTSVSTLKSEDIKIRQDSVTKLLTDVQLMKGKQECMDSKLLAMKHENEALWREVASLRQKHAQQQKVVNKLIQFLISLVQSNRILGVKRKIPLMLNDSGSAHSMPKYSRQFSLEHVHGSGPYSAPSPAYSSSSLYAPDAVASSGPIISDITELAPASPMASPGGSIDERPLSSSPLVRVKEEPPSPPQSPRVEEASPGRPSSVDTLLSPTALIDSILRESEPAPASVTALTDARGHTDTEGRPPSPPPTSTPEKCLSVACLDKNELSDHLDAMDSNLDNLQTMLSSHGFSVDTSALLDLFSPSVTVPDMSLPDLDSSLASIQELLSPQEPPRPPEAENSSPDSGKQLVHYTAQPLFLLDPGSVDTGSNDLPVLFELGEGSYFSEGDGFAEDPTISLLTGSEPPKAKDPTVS
Description: EMSA using extracts of heat-treated HeLa cells, in the presence of IHSF. It is filed as biochemical. The settings on record: extracts of HeLa cells heat-treated at 43° C. for 30 min; concentrations as high as about 0.5 mM. The protocol: Electrophoretic mobility shift assays (EMSA) using a radiolabeled HSE DNA probe were carried out to assess HSF1 DNA-binding activity in extracts of heat-treated (43° C./30 min) HeLa cells that had been exposed to different concentrations of compounds 058 or 115 (FIG. 3A, top panels). […] HSF1 degradation correlated well with the observed decrease in DNA-binding activity. Therefore, HSF1 degradation provides a sufficient explanation for the reduced HSE DNA-binding activity in cells treated with IHSF 058. […] EMSA were also carried out using extracts of HeLa cells that had been heat-treated at 43° C. for 30 min.
On the technique in general: A gel shift assay detects complexes by their altered migration in electrophoresis.

For a further assay, the system named is human cancer cell lines. Kind of assay: Viability of human cancer cell lines (overall statements). Format: cell-based. The settings on record: 96-hour exposure; sensitivity varied greatly; no effect of p53 status. On the procedure:
Cultures of HeLa cells were exposed for 96 hours to different concentrations of IHSF 001, 058 and 115, and viability was assessed using an Alamar Blue assay. It is noted that this standard assay examines attached cells only. This subject will be discussed in more detail below. […] The relative cytotoxicity of the compounds appears to parallel their respective activities as inhibitors of HSF1 function (inhibition of RLuc expression in Z74 cells). We next examined the viability of different human cancer cell lines subsequent to a 96-hour exposure to compound 115 (Table 3). HSF1 was reported as being required for optimal p21 expression and for p53-mediated cell cycle arrest in response to genotoxins. Logan, I. R. et al. (2009) Nucleic Acids Res. 37: 2962-2971. […] Cell lines of different p53 status were included in the experiments in order to find out whether sensitivity to IHSF 115 was related to p53 status. […] No effect of p53 status could be discovered. It is noted that a number of additional HSF inhibitors of the present disclosure were tested and found to effectively reduce the viability of human cancer cells.

Turning to `CCOC(=O)/C=C/C(=O)Nc1nccs1` [IHSF 001, (E)-ethyl 4-oxo-4-(thiazol-2-ylamino)but-2-enoate], on HSE DNA-binding activity, the “HSE DNA-binding activity (EMSA) in the presence of IHSF” value is “no reduction”.
With `CN(C(=O)/C=C/C1=NCCCO1)c1ncc(-c2cccnc2)s1` [IHSF 115, (E)-3-(5,6-Dihydro-4H-[1,3]oxazin-2-yl)-N-methyl-N-(5-pyridin-3-yl-thiazol-2-yl)-acrylamide], the “viability of human cancer cell lines” value with human cancer cell lines is “reduced viability in all cell lines tested”.

For the origin of these results see patent US11597708B2, “Inhibitors of heat shock factors and uses thereof” (HSF Pharmaceuticals SA, priority 2016, dated 2023).
